According to ChEMBL document CHEMBL3621143, “Discovery of BMS-641988, a Novel Androgen Receptor Antagonist for the Treatment of Prostate Cancer” (ACS Med Chem Lett, 2015):
pIC50: −log10 of the molar value.

Columns and labels:
Androgen receptor = biological target: T1, Androgen receptor (Homo sapiens, UniProt P10275); assay: Antagonist activity at androgen receptor in human MDA-MB-453 cells assessed as inhibition of DHT-induced PSA expression by alkaline phosphatase reporter gene assay; assay type: cell-based
T1 sequence (P10275 whole entry): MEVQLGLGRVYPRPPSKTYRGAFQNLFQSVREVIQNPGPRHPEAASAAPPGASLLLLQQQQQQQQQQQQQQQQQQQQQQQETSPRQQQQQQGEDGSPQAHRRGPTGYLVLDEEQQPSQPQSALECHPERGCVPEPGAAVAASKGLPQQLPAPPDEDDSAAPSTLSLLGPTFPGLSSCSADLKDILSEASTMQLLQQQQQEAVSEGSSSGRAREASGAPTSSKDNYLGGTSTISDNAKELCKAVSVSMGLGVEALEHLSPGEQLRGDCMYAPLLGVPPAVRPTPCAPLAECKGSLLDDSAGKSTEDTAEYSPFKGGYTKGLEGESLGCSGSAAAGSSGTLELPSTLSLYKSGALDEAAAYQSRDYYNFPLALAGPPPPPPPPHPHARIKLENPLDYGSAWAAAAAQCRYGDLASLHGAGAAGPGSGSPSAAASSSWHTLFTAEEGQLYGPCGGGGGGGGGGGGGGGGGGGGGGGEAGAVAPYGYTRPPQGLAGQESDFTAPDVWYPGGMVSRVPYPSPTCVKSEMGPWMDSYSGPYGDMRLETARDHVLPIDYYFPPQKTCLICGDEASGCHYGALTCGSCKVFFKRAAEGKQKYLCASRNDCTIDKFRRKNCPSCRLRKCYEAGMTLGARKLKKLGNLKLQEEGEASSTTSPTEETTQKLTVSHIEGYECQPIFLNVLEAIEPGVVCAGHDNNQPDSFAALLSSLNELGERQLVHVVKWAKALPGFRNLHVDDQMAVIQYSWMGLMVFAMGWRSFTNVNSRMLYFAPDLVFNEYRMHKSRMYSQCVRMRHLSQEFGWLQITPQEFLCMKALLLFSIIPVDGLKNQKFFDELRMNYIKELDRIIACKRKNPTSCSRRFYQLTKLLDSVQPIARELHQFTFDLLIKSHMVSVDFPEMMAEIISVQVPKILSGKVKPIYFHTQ

LNCaP = assay: Cytotoxicity against human LNCAP cells; assay type: functional, cell-based

Compound: CCS(=O)(=O)N[C@@H]1C[C@]2(C)O[C@]1(C)[C@@H]1C(=O)N(c3ccc(C#N)c(C(F)(F)F)c3)C(=O)[C@@H]12
- pIC50 (Androgen receptor): 7.80
- pIC50 (LNCaP): 6.82
